Results published in patent US9605023B2, “Application of SP peptide or derivative thereof in preparing medicines for preventing or treating asthma” (priority 2012, dated 2017).
Where no end group is shown, it is not given here.

What was measured:
[1] = system: allergic asthma mouse model; test: Histopathologic examination and lesion score of lung tissues of allergic asthma mice induced by ovalbumin and aluminium hydroxide; format: in vivo
Experimental: (§1) ICR mice, half male and half female, are divided randomly into 9 groups with each group having 10 mice, that is:
(§2) 3) positive medicines group (administer an equal volume of dexamethasone injection solution with the model group, having the dosage of 0.9 μg/kg·d);
(§3) All dosage groups of the SP peptide are administered by subcutaneous injection with a 0.1 ml SP peptide solution per 10 g weight of a mouse, the blank control group uses the same amount of physiological saline (0.1 ml physiological saline per 10 g weight of a mouse), and the positive medicines group is administered by intraperitoneal injection with 0.1 ml positive medicines per 10 g weight of a mouse.
(§4) Preparation of sensitized liquid: prepare in a proportion of dissolving 10 ug ovalbumin and 2 mg aluminium hydroxide in 0.5 ml physiological saline, and use it right after being prepared.
(§5) On day 1, day 7 and day 14, the mice of all groups (the model group, the preventive administration groups, the treatment administration groups, and the positive medicines group) apart from the blank control group are injected intraperitoneally with 0.5 ml freshly prepared sensitized liquid. The blank control group is injected intraperitoneally with an equal volume of physiological saline.
(§6) Since day 21 (i.e., starting from week 4), the mice of all groups apart from the blank control group are placed in a 16 L closed container every fourth days, make the mice inhale 1 wt % ovalbumin physiological saline by ultrasonic nebulization, with an inhalation duration of 25 min/d and a nebulization flow rate of 3 ml/min, for twice a week to induce asthma, and the process continues until week 19. The mice in the blank control group undergo nebulization […] with an equal volume of physiological saline.
(§7) Particularly, the preventive administration group (the SP peptide high-dosage preventive administration group, SP peptide medium-dosage preventive administration group, and SP peptide low-dosage preventive administration group) are injected subcutaneously a corresponding dosage of SP peptide at right hindlimb of the mouse, one hour after the first intraperitoneal injection of the sensitized liquid (i.e., from day 1), and are administered every other day for 15 times in total.
(§8) From the same day, the mice in the treatment administration groups (SP high-dosage treatment administration group, SP medium-dosage treatment administration group, and SP low-dosage treatment administration group) are injected subcutaneously with a corresponding dosage of SP peptide at right hindlimb thereof, and are administered every other day for 15 times in total. From the same day, the mice in the positive medicines group are injected intraperitoneally with 0.1 ml dexamethasone injection per 10 g weight of a mouse, and are administered every other day for 15 times in total.
Lung tissue lesions (including bronchia and perivascular interstitial edema, alveolar wall congestion or emphysema) are marked respectively as 1, 2, 3 and 4 in ascending order of severity, 0 stands for no obvious lesions, and 0.5 for extreme mild lesions. All scores are accumulated, and a mean score (±SD) of each mouse in each group is calculated, and a higher score indicates a more severe level of lesions. Perform a rank-sum test to pathological score results to compare the two samples, and compare with the model group.
2.2 Data Processing: perform data processing to all data, rank-sum test to pathological score, t-test to the other data, and make statistics to analytic results.

[2] = system: IL-13; test: IL-13 level (ELISA) in serum and lung tissue homogenates of allergic asthma mice induced by ovalbumin and aluminium hydroxide; format: in vivo, mouse; conditions: for IL-13 level in serums / IL-13 level in lung tissue homogenates: compared to model group
Experimental: as §1, §2
(§9) 4) SP peptide high-dosage preventive administration group, 5) SP peptide medium-dosage preventive administration group, and 6) SP peptide low-dosage preventive administration group (administer ovalbumin and aluminium hydroxide, and the SP peptides with a respective dosage of 250 μg/kg·d, 125 μg/kg·d and 62.5 μg/kg·d prepared into an SP peptide solution of a desired concentration with physiological saline).
(§10) 7) SP peptide high-dosage treatment administrative group, 8) SP peptide medium-dosage treatment administration group, and 9) SP peptide low-dosage treatment administration group (administer ovalbumin and aluminium hydroxide, and the SP peptides with a respective dosage of 250 μg/kg·d, 125 μg/kg·d and 62.5 μg/kg·d prepared into an SP peptide solution of a desired concentration with physiological saline).
as §3, §4, §5, §6, §7, §8
(§11) As for the determination of the experimental result, all mice are killed to obtain blood by picking off their eyeballs 6 hours after the final nebulization inhalation (week 19), and serum is collected and stored at −70° C. until needed. […]

[3] = system: IL-4; test: IL-4 level (ELISA) in serum and lung tissue homogenates of allergic asthma mice induced by ovalbumin and aluminium hydroxide; format: in vivo, mouse
Experimental: as §1, §2, §9, §10, §3, §4, §5, §6, §7, §8, §11

[4] = system: IL-13; test: IL-13 level (ELISA) in serum and lung tissue homogenates of allergic asthma mice induced by ovalbumin and aluminium hydroxide; format: in vivo, mouse; conditions: compared to model group
[5] = system: r-IFN, IL-4 and IL-10; conditions: disclosed in CN1194986C and CN1216075C; cited from earlier work
[6] = system: TNF-α; conditions: pneumonia; recorded in CN101822816A; cited from earlier work
[7] = positive drug group, dexamethasone 0.9 μg/kg·d i.p. every other day x15 from week 15, FIG. 6
[8] = all SP peptide high-/medium-/low-dosage preventive and treatment administration groups, compared to the model group (summary statement)
[9] = SP peptide high-dosage preventive administration group, 250 μg/kg·d s.c., FIG. 9
[10] = SP peptide high-dosage treatment administration group, 250 μg/kg·d s.c., FIG. 12
[11] = SP peptide low-dosage preventive administration group, 62.5 μg/kg·d s.c., FIG. 7
[12] = SP peptide low-dosage treatment administration group, 62.5 μg/kg·d s.c., FIG. 10
[13] = SP peptide medium-dosage preventive administration group, 125 μg/kg·d s.c., FIG. 8
[14] = SP peptide medium-dosage treatment administration group, 125 μg/kg·d s.c., FIG. 11

## C[C@@H]1C[C@H]2[C@@H]3CCC4=CC(=O)C=C[C@]4(C)[C@@]3(F)[C@@H](O)C[C@]2(C)[C@@]1(O)C(=O)CO [positive drug, dexamethasone, reference compound]
[1]; [7]
  inflammatory cells infiltration (lung tissue section): infiltration with a few inflammatory cells
  pulmonary interstitial edema (lung tissue section): mild pulmonary interstitial edema

## GQTYTSG
[2]; SP peptide high-dosage preventive administration group, 250 μg/kg·d s.c. every other day x15 from day 1
  IL-13 level in serums: significantly decreased
[2]; SP peptide high-dosage preventive administration group, 250 μg/kg·d s.c.
  IL-13 level in lung tissue homogenates: significantly decreased
[2]; SP peptide high-dosage treatment administration group, 250 μg/kg·d s.c.
  IL-13 level in lung tissue homogenates: significantly decreased
[2]; SP peptide low-dosage treatment administration group, 62.5 μg/kg·d s.c.
  IL-13 level in lung tissue homogenates: significantly decreased
[2]; SP peptide medium-dosage preventive administration group, 125 μg/kg·d s.c. every other day x15 from day 1
  IL-13 level in serums: significantly decreased
[2]; SP peptide medium-dosage preventive administration group, 125 μg/kg·d s.c.
  IL-13 level in lung tissue homogenates: significantly decreased
[2]; SP peptide medium-dosage treatment administration group, 125 μg/kg·d s.c.
  IL-13 level in lung tissue homogenates: significantly decreased
[2]; [8]
  IL-13 level: significantly reduced
[3]; SP peptide high-dosage preventive administration group, 250 μg/kg·d s.c., compared to model group
  IL-4 level: significantly decreased
[3]; SP peptide high-dosage treatment administration group, 250 μg/kg·d s.c., compared to model group
  IL-4 level: significantly decreased
[3]; SP peptide low-dosage treatment administration group, 62.5 μg/kg·d s.c., compared to model group
  IL-4 level: significantly decreased
[3]; SP peptide medium-dosage preventive administration group, 125 μg/kg·d s.c., compared to model group
  IL-4 level: significantly decreased
[3]; SP peptide medium-dosage treatment administration group, 125 μg/kg·d s.c., compared to model group
  IL-4 level: significantly decreased
[3]; [8]
  IL-4 level: significantly reduced
[1]; SP peptide high-dosage preventive administration group, 250 μg/kg·d s.c., ** P<0.01, FIG. 3
  overall score of lung tissue lesion level, difference compared to the model group (rank-sum test): highly significant differences
[1]; [9]
  inflammatory cells infiltration (lung tissue section): infiltration with a few inflammatory cells around bronchus
  pulmonary interstitial edema (lung tissue section): mild pulmonary interstitial edema
[1]; SP peptide high-dosage treatment administration group, 250 μg/kg·d s.c., ** P<0.01, FIG. 3
  overall score of lung tissue lesion level, difference compared to the model group (rank-sum test): highly significant differences
[1]; [10]
  inflammatory cells infiltration (lung tissue section): infiltration with a few inflammatory cells
  pulmonary interstitial edema (lung tissue section): mild pulmonary interstitial edema
[1]; SP peptide low-dosage preventive administration group, 62.5 μg/kg·d s.c., * P<0.05, FIG. 3
  overall score of lung tissue lesion level, difference compared to the model group (rank-sum test): significant differences
[1]; [11]
  inflammatory cells infiltration (lung tissue section): infiltration with greater inflammatory cells
  pulmonary interstitial edema (lung tissue section): moderate or severe pulmonary interstitial edema
[1]; SP peptide low-dosage treatment administration group, 62.5 μg/kg·d s.c., * P<0.05, FIG. 3
  overall score of lung tissue lesion level, difference compared to the model group (rank-sum test): significant differences
[1]; [12]
  inflammatory cells infiltration (lung tissue section): infiltration with greater inflammatory cells
  pulmonary interstitial edema (lung tissue section): moderate intrapulmonary small perivascular and peribronchial pulmonary interstitial edema
[1]; SP peptide medium-dosage preventive administration group, 125 μg/kg·d s.c., * P<0.05, FIG. 3
  overall score of lung tissue lesion level, difference compared to the model group (rank-sum test): significant differences
[1]; [13]
  inflammatory cells infiltration (lung tissue section): infiltration with a few inflammatory cells
  pulmonary interstitial edema (lung tissue section): moderate or mild pulmonary interstitial edema
[1]; SP peptide medium-dosage treatment administration group, 125 μg/kg·d s.c., ** P<0.01, FIG. 3
  overall score of lung tissue lesion level, difference compared to the model group (rank-sum test): highly significant differences
[1]; [14]
  alveolar wall congestion or emphysema (lung tissue section): congestion around alveolar walls, alveoli are in an emphysematous state
  inflammatory cells infiltration (lung tissue section): infiltration with many inflammatory cells
  pulmonary interstitial edema (lung tissue section): mild intrapulmonary small perivascular and peribronchial pulmonary interstitial edema
[1]; after administering SP peptide for prevention or treatment, histopathologic test, FIG. 3
  bronchia and perivascular interstitial edema, edematous inflammatory cells infiltration, alveolar wall congestion or emphysema: significantly reduced
[1]; [8]
  lung tissue lesion level: significantly alleviated
[1]; five mice drawn from each group, preventive administration groups (SP peptide 250, 125, 62.5 μg/kg·d s.c. from day 1, x15)
  asthma modelling by pathological check on day 1 of week 15: all asthma groups apart from the preventive administration groups are successfully modeled
[4]; SP peptide high-dosage treatment administration group, 250 μg/kg·d s.c. every other day x15 from week 15
  IL-13 level in serums: significantly decreased
[4]; SP peptide low-dosage treatment administration group, 62.5 μg/kg·d s.c. every other day x15 from week 15
  IL-13 level in serums: significantly decreased
[4]; SP peptide medium-dosage treatment administration group, 125 μg/kg·d s.c. every other day x15 from week 15
  IL-13 level in serums: significantly decreased
[5]
  level of cytokines r-IFN, IL-4 and IL-10: increased level
[6]
  TNF-α level: reducing TNF-α level
